Test results as given in patent US9079913B2, “Spiro-oxindole MDM2 antagonists” (The Regents of the University of Michigan, priority 2009, dated 2015).
Like-named read-outs stand apart in the source and are kept apart here.

Legend:
[1] = system: cancer cell lines with wild-type p53 / mutated or deleted p53 (ATCC); test: Cell growth assay (WST-8), other cancer cell lines; assay type: cell-based
[2] = target: recombinant human His-tagged MDM2 protein (residues 1-118) (Homo sapiens (Human), UniProt Q00987); test: Fluorescence-polarization MDM2 binding assay;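 note: fluorescence polarization read after three hours of incubation in potassium phosphate buffer containing bovine gamma globulin and Triton X-100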
[3] = system: Isogenic HCT-116 colon cancer cell lines; test: cells; assay type: cell-based;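 note: cells grown in 96-well plates in McCoy's 5A medium with 10% FBS, exposed to compound for 4 days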
Description: Cells were seeded in 96-well flat bottom cell culture plates at a density of 2−3×10^3 cells/well with compounds and incubated for 4 days.

[4] = Homo sapiens, LNCaP, Table 19B, LNCaP cells, read-out: Inhibition of cell growth IC50, LNCaP
[5] = Homo sapiens, PC-3, Table 19B, PC3 cells, read-out: Inhibition of cell growth IC50, PC3
[6] = Table 19B, read-out: Binding affinities to MDM2 protein as determined by FP based assay IC50
[7] = Homo sapiens, HCT-116, read-out: Inhibition of cell growth IC50, HCT116 p53 KO, Table 19B, HCT116 p53 KO
[8] = Homo sapiens, HCT-116, read-out: Inhibition of cell growth IC50, HCT116 p53 WT, Table 19B, HCT116 p53 WT
[9] = Table 19B, LNCaP cells, read-out: Inhibition of cell growth IC50, LNCaP
[10] = Table 19B, PC3 cells, read-out: Inhibition of cell growth IC50, PC3
[11] = read-out: Inhibition of cell growth IC50, HCT116 p53 KO, Table 19B, HCT116 p53 KO
[12] = read-out: Inhibition of cell growth IC50, HCT116 p53 WT, Table 19B, HCT116 p53 WT
[13] = Homo sapiens, LNCaP, Table 19A, LNCAP cells, p53 wild-type, cell growth, read-out: LNCAP (p53 wild-type) IC50
[14] = Homo sapiens, PC-3, Table 19A, PC-3 cells, deleted p53, cell growth, read-out: PC-3 (deleted p53) IC50
[15] = Table 19A, FP binding assay, read-out: MDM2 IC50
[16] = Homo sapiens, HCT-116, read-out: HCT-116 (p53-/-) IC50, Table 19A, HCT-116 p53-/-, cell growth
[17] = Homo sapiens, HCT-116, read-out: HCT-116 (p53 wild-type) IC50, Table 19A, HCT-116 p53 wild-type, cell growth
[18] = Homo sapiens, SJSA-1, Table 19A, SJSA-1 cells, p53 wild-type, cell growth, read-out: SJSA-1 (p53 wild-type) IC50

Chain of recombinant human His-tagged MDM2 protein (residues 1-118) (Q00987 1-118): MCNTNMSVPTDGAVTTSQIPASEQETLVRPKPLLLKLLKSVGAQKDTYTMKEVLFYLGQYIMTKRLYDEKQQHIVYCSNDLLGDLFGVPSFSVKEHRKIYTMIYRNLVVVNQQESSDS

Row | SMILES | IC50 [1, 4] [µM] | IC50 [1, 5] [µM] | IC50 [2, 6] [µM] | IC50 [3, 7] [µM] | IC50 [3, 8] [µM] | IC50 [1, 13] [µM] | IC50 [2, 15] [µM] | IC50 [3, 16] [µM] | IC50 [3, 17] [µM] | further results
1 | CCCC(C)(C)C[C@H]1N[C@@H](C(=O)NCC[C@H](O)CO)[C@H](c2cccc(Cl)c2)[C@@]12C(=O)Nc1cc(Cl)c(F)cc12 [MI-729] | 1 | 6.1 ± 1.6 | < 1 | 8.9 ± 0.1 | 0.8 ± 0.2 | – | – | – | – | –
2 | CC(C)CC(C)(C)C[C@H]1N[C@@H](C(=O)NCCN2CCOCC2)[C@H](c2cccc(Cl)c2F)[C@@]12C(=O)Nc1cc(F)c(F)cc12 [MI-730] | 1.7 ± 0.5 | 6.3 ± 1.4 | < 1 | 7.8 ± 0.7 | 1.4 ± 0.3 | – | – | – | – | –
3 | CC(C)CC(C)(C)C[C@H]1N[C@@H](C(=O)NCC[C@H](O)CO)[C@H](c2cccc(Cl)c2F)[C@@]12C(=O)Nc1cc(Cl)c(F)cc12 [MI-731] | 0.8 ± 0.5 | 5.6 ± 1.9 | < 1 | 6.4 ± 1.7 | 0.9 ± 0.5 | – | – | – | – | –
4 | CC(C)CC(C)(C)C[C@H]1N[C@@H](C(=O)NCC[C@H](O)CO)[C@H](c2cccc(Cl)c2F)[C@@]12C(=O)Nc1cc(F)c(F)cc12 [MI-732] | 0.7 | 5.8 | < 1 | 10.2 ± 4.8 | 0.7 ± 0.1 | – | – | – | – | –
5 | CC(C)CC(C)(C)C[C@H]1N(C)[C@@H](C(=O)NCC[C@H](O)CO)[C@H](c2cccc(Cl)c2F)[C@@]12C(=O)Nc1cc(Cl)c(F)cc12 [MI-733] | 2.2 ± 0.5 | 5.4 ± 1.7 | > 1 | 8.7 ± 0.9 | 2.4 ± 0.3 | – | – | – | – | –
6 | CC(C)CC(C)(C)C[C@H]1N(C)[C@@H](C(=O)NCC[C@H](O)CO)[C@H](c2cccc(Cl)c2F)[C@@]12C(=O)Nc1cc(F)c(F)cc12 [MI-734] | 3.7 ± 1.1 | 7.4 ± 1.8 | > 5 | 8.2 ± 3.5 | 5.5 ± 2.1 | – | – | – | – | –
7 | CC(C)CC(C)(C)C[C@H]1N[C@@H](C(=O)NCC[C@H](O)CO)[C@H](c2cccc(Cl)c2)[C@@]12C(=O)Nc1cc(F)c(F)cc12 [MI-735] | 1.1 ± 0.4 | 8.6 ± 0.9 | < 1 | 8.5 ± 1.1 | 1.2 ± 0.3 | – | – | – | – | –
8 | CC(C)CC(C)(C)C[C@H]1N[C@@H](C(=O)NCC[C@H](O)CO)[C@H](c2ccc(F)c(Cl)c2)[C@@]12C(=O)Nc1cc(F)c(F)cc12 [MI-736] | 0.9 | 6.3 ± 1.2 | < 1 | 4.4 ± 0.9 | 1 ± 0.2 | – | – | – | – | –
9 | CC(C)CC(C)(C)C[C@H]1N(C)[C@@H](C(=O)NCC[C@H](O)CO)[C@H](c2cccc(Cl)c2)[C@@]12C(=O)Nc1cc(F)c(F)cc12 [MI-737] | 3.53 | 11.3 | > 1 | 24.4 | 5 | – | – | – | – | IC50 [1, 9]: 3.73 µM; IC50 [1, 10]: 11.6 µM; IC50 [3, 11]: 15 µM; IC50 [3, 12]: 4.5 µM
10 | CC(C)CC(C)(C)C[C@H]1N(C)[C@@H](C(=O)NCC[C@H](O)CO)[C@H](c2ccc(F)c(Cl)c2)[C@@]12C(=O)Nc1cc(F)c(F)cc12 [MI-738] | 4.8 ± 1 | 8.5 ± 0.6 | > 3 | 8.2 ± 0.6 | 8.5 ± 2.1 | – | – | – | – | –
11 | CC(C)(C)C[C@H]1N[C@@H](C(=O)N2CCNCC2)[C@H](c2cccc(Cl)c2)[C@@]12C(=O)Nc1cc(Cl)c(F)cc12 [MI-739] | – | – | – | – | – | 1.5 ± 0.5 | < 5 | 3 ± 0.2 | 2.1 ± 0.6 | IC50 [1, 14]: 3.2 ± 0.7 µM
12 | CN1CCN(C(=O)[C@@H]2N[C@H](CC(C)(C)C)[C@]3(C(=O)Nc4cc(Cl)c(F)cc43)[C@H]2c2cccc(Cl)c2)CC1 [MI-740] | – | – | – | – | – | 2 ± 0.3 | < 5 | 5.4 ± 1.9 | 2.8 ± 0.1 | IC50 [1, 14]: 4.8 ± 0.8 µM
13 | CC(=O)N1CCN(C(=O)[C@@H]2N[C@H](CC(C)(C)C)[C@]3(C(=O)Nc4cc(Cl)c(F)cc43)[C@H]2c2cccc(Cl)c2)CC1 [MI-742] | – | – | – | – | – | 2.2 ± 0.3 | < 10 | 19.9 ± 10.3 | 1.7 ± 0.1 | IC50 [1, 14]: 10.2 ± 4.8 µM
14 | CC(C)(C)C[C@H]1N[C@@H](C(=O)N2CCN(C(=O)C3CC3)CC2)[C@H](c2cccc(Cl)c2)[C@@]12C(=O)N(C(=O)C1CC1)c1cc(Cl)c(F)cc12 [MI-743B] | > 1 | > 1 | > 100 | > 1 | > 1 | – | – | – | – | –
15 | CC(C)(C)C[C@H]1N[C@@H](C(=O)N2CCN(C(=O)C3CC3)CC2)[C@H](c2cccc(Cl)c2)[C@@]12C(=O)Nc1cc(Cl)c(F)cc12 [MI-743] | 2.5 ± 0.5 | 7.7 ± 3.1 | > 1 | 5.7 ± 3.4 | 2.4 ± 0.2 | – | – | – | – | –
16 | CN(C)CC(=O)N1CCN(C(=O)[C@@H]2N[C@H](CC(C)(C)C)[C@]3(C(=O)Nc4cc(Cl)c(F)cc43)[C@H]2c2cccc(Cl)c2)CC1 [MI-744] | – | – | – | – | – | 1.7 ± 0.1 | < 10 | 5.7 ± 3.4 | 2.4 ± 0.2 | IC50 [1, 14]: 7.7 ± 3.1 µM
17 | CN(C)CCC(=O)N1CCN(C(=O)[C@@H]2N[C@H](CC(C)(C)C)[C@]3(C(=O)Nc4cc(Cl)c(F)cc43)[C@H]2c2cccc(Cl)c2)CC1 [MI-746] | – | – | – | – | – | 2.2 ± 0.4 | < 10 | 6.7 ± 1.8 | 2.3 ± 0.1 | IC50 [1, 14]: 6.9 ± 1.2 µM
18 | CC(C)(C)C[C@H]1N[C@@H](C(=O)NCC[C@H]2CC[C@@H](O)C2)[C@H](c2cccc(Cl)c2F)[C@@]12C(=O)Nc1cc(Cl)ccc12 [MI-754] | – | – | < 1 | – | – | – | – | – | – | IC50 [1, 9]: < 3 µM; IC50 [1, 10]: > 5 µM; IC50 [3, 11]: > 5 µM; IC50 [3, 12]: < 3 µM
19 | CC(C)(C)C[C@H]1N[C@@H](C(=O)NCCC2CCC(O)C2)[C@H](c2cccc(Cl)c2F)[C@@]12C(=O)Nc1cc(Cl)ccc12 (some centres unmarked) [MI-755] | < 3 | > 10 | < 1 | > 10 | < 3 | – | – | – | – | –
20 | CC(C)(C)C[C@H]1N[C@@H](C(=O)NCCN2CCC(O)CC2)[C@H](c2cccc(Cl)c2)[C@@]12C(=O)Nc1cc(Cl)c(F)cc12 [MI-759] | – | – | – | – | – | 1.4 ± 0.1 | < 1 | 5.2 ± 1 | 1.4 ± 0.6 | IC50 [1, 14]: 5.5 ± 2.3 µM
21 | CC(C)(C)C[C@H]1N[C@@H](C(=O)NC2CCC(N)CC2)[C@H](c2cccc(Cl)c2)[C@@]12C(=O)Nc1cc(Cl)c(F)cc12 (some centres unmarked) [MI-776] | – | – | – | – | – | 2.4 | < 1 | – | 2.7 | IC50 [1, 18]: 3.2 µM
22 | CC(C)(C)C[C@H]1N[C@@H](C(=O)NC2CCC(NS(=O)(=O)C(F)(F)F)CC2)[C@H](c2cccc(Cl)c2)[C@@]12C(=O)Nc1cc(Cl)c(F)cc12 (some centres unmarked) [MI-777] | – | – | – | – | – | 6.6 | < 5 | 7.8 | 8.9 | IC50 [1, 18]: 9.2 µM
23 | CC(C)(C)C[C@H]1N[C@@H](C(=O)NC2CCNCC2)[C@H](c2cccc(Cl)c2F)[C@@]12C(=O)Nc1cc(Cl)ccc12 [MI-782] | – | – | – | – | – | – | < 1 | 4.7 | 0.7 | IC50 [1, 18]: 1.2 µM
24 | CC(=O)N1CCC(NC(=O)[C@@H]2N[C@H](CC(C)(C)C)[C@]3(C(=O)Nc4cc(Cl)ccc43)[C@H]2c2cccc(Cl)c2F)CC1 [MI-783] | – | – | – | – | – | – | < 0.5 | 18.5 | 0.9 | IC50 [1, 18]: 1.1 µM
25 | CC(C)(C)C[C@H]1N[C@@H](C(=O)NC2CCN(CCO)CC2)[C@H](c2cccc(Cl)c2F)[C@@]12C(=O)Nc1cc(Cl)ccc12 [MI-784] | – | – | – | – | – | – | < 0.5 | 10.3 | 0.4 | IC50 [1, 18]: 0.7 µM
